≈ marks a conversion by molar mass, not a printed value.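 Tested at 5 concentrations; 48 h exposure; 96-well plates; endpoints linearly interpolated, else capped at highest concentration. GI50 marks 50% less growth. Definition used: TGI = concentration required for complete inhibition of growth.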
Experiments:
Test in all cases: NCI anticancer screen, dose series, 48 h
[1] = system: TK-10 renal
[2] = system: MALME-3M melanoma
[3] = system: OVCAR-4 ovarian
[4] = system: HCC-2998 colon
[5] = system: SNB-75 CNS
[6] = system: 786-0 renal
[7] = system: UACC-62 melanoma
[8] = system: NCI/ADR-RES ovarian
[9] = system: HL-60(TB) leukemia
[10] = system: EKVX NSCLC
[11] = system: HCT-15 colon
[12] = system: KM12 colon
[13] = system: HS 578T breast
[14] = system: A498 renal
[15] = system: SK-OV-3 ovarian
[16] = system: COLO 205 colon
[17] = system: U251 CNS
[18] = system: K-562 leukemia
[19] = system: MDA-MB-435
[20] = system: SK-MEL-28 melanoma
[21] = system: UACC-257 melanoma
[22] = system: SF-295 CNS
[23] = system: CCRF-CEM leukemia
[24] = system: MDA-N
[25] = system: DU-145 prostate
[26] = system: LOX IMVI melanoma
[27] = system: M14 melanoma
[28] = system: NCI-H522 lung
[29] = system: CAKI-1 renal
[30] = system: OVCAR-3 ovarian
[31] = system: NCI-H226 lung
[32] = system: SF-268 CNS
[33] = system: UO-31 renal
[34] = system: A549 NSCLC
[35] = system: HT29 colon
[36] = system: PC-3 prostate
[37] = system: SK-MEL-5 melanoma
[38] = system: SK-MEL-2 melanoma
[39] = system: RPMI-8226 leukemia
[40] = system: MDA-MB-231 breast
[41] = system: RXF 393 renal
[42] = system: MCF7 breast
[43] = system: SNB-19 CNS
[44] = system: BT-549 breast
[45] = system: SW-620 colon
[46] = system: SR leukemia
[47] = system: MOLT-4 leukemia
[48] = system: ACHN renal
[49] = system: HOP-62 NSCLC
[50] = system: NCI-H23 lung
[51] = system: OVCAR-8 ovarian
[52] = system: SF-539 CNS
[53] = system: IGROV1 ovarian
[54] = system: SN12C renal
[55] = system: HCT-116 colon
[56] = system: OVCAR-5 ovarian
[57] = system: HOP-92 NSCLC
[58] = system: NCI-H460 lung

CC(=O)OC1CCC(OC(C)=O)[C@H]2[C@@H]1[C@@H]1S[C@H]2c2ccccc21 (some centres not stated)
GI50 [1]: 35.7 µg/mL (≈ 108 µM) | GI50 [2]: 62.1 µg/mL (≈ 187 µM) | GI50 [3]: 31.3 µg/mL (≈ 94.1 µM) | GI50 [4]: 50.1 µg/mL (≈ 151 µM) | GI50 [5]: 48.1 µg/mL (≈ 145 µM) | GI50 [6]: 85.6 µg/mL (≈ 257 µM) | GI50 [7]: 41.4 µg/mL (≈ 124 µM) | GI50 [8]: 99.2 µg/mL (≈ 298 µM) | GI50 [9]: 22 µg/mL (≈ 66.1 µM) | GI50 [10]: 54.8 µg/mL (≈ 165 µM) | GI50 [11]: 93.7 µg/mL (≈ 282 µM) | GI50 [12]: 49 µg/mL (≈ 147 µM) | GI50 [13]: 76.1 µg/mL (≈ 229 µM) | GI50 [14]: 43.9 µg/mL (≈ 132 µM) | GI50 [15]: 4.09 µg/mL (≈ 12.3 µM) | GI50 [16]: 59.1 µg/mL (≈ 178 µM) | GI50 [17]: 81.9 µg/mL (≈ 246 µM) | GI50 [18]: 35.9 µg/mL (≈ 108 µM) | GI50 [19]: 21.6 µg/mL (≈ 64.9 µM) | GI50 [20]: 97.3 µg/mL (≈ 293 µM) | GI50 [21]: 76.8 µg/mL (≈ 231 µM) | GI50 [22]: 36 µg/mL (≈ 108 µM) | GI50 [23]: 36.4 µg/mL (≈ 109 µM) | GI50 [24]: 24.2 µg/mL (≈ 72.8 µM) | GI50 [25]: 85.3 µg/mL (≈ 257 µM) | GI50 [26]: 80.6 µg/mL (≈ 242 µM) | GI50 [27]: 27.9 µg/mL (≈ 84 µM) | GI50 [28]: 32.5 µg/mL (≈ 97.7 µM)

COC(=O)C([C@H]1CC[C@H](OCc2ccccc2)[C@@]1(O)COCc1ccccc1)C(C)(O)CCc1ccccc1 (some centres not stated)
TGI [29]: > 100 µM | TGI [30]: 27.2 µM | TGI [1]: 39.9 µM | TGI [31]: 26.6 µM | TGI [2]: 25.7 µM | TGI [32]: 22 µM | TGI [33]: 23.7 µM | TGI [3]: 43.9 µM | TGI [4]: 33.2 µM | TGI [5]: 19.7 µM | TGI [6]: 27.4 µM | TGI [34]: 27.1 µM | TGI [7]: 26.6 µM | TGI [35]: 22.2 µM | TGI [8]: 26.5 µM | TGI [36]: 16.3 µM | TGI [37]: 27.6 µM | TGI [10]: 38.2 µM | TGI [38]: 25.3 µM | TGI [11]: 37.4 µM | TGI [39]: 43.3 µM | TGI [40]: 26.2 µM | TGI [41]: 25.9 µM | TGI [12]: 16.4 µM | TGI [42]: 25.3 µM | TGI [14]: 28.6 µM | TGI [15]: > 100 µM | TGI [16]: 25.8 µM | TGI [43]: > 100 µM | TGI [17]: 27.2 µM | TGI [18]: 35.5 µM | TGI [44]: 30.8 µM | TGI [19]: 29.4 µM | TGI [20]: 30.1 µM | TGI [45]: 28.9 µM | TGI [21]: 35.1 µM | TGI [46]: 26.4 µM | TGI [47]: 19.7 µM | TGI [22]: 23.3 µM | TGI [23]: 60.2 µM | TGI [48]: 29.2 µM | TGI [49]: 29.6 µM | TGI [50]: 37.8 µM | TGI [24]: 26.6 µM | TGI [51]: 41.5 µM | TGI [52]: 29.1 µM | TGI [25]: 72.7 µM | TGI [26]: 22.8 µM | TGI [53]: 29.3 µM | TGI [27]: 22.9 µM | TGI [54]: 16.2 µM | TGI [55]: 24.2 µM | TGI [28]: 26.1 µM | TGI [56]: 27 µM

COC(=S)OC1CC(n2cnc3c(=O)[nH]cnc32)OC1CO[Si](C)(C)C(C)(C)C (configuration not stated)
TGI [29]: > 100 µM | TGI [30]: > 100 µM | TGI [1]: > 100 µM | TGI [31]: > 100 µM | TGI [2]: > 100 µM | TGI [32]: > 100 µM | TGI [3]: > 100 µM | TGI [5]: > 100 µM | TGI [6]: > 100 µM | TGI [34]: > 100 µM | TGI [7]: > 100 µM | TGI [35]: > 100 µM | TGI [8]: > 100 µM | TGI [36]: > 100 µM | TGI [9]: > 100 µM | TGI [37]: > 100 µM | TGI [10]: > 100 µM | TGI [38]: > 100 µM | TGI [11]: > 100 µM | TGI [39]: > 100 µM | TGI [40]: > 100 µM | TGI [41]: > 100 µM | TGI [12]: > 100 µM | TGI [13]: > 100 µM | TGI [42]: > 100 µM | TGI [14]: > 100 µM | TGI [15]: > 100 µM | TGI [16]: > 100 µM | TGI [43]: > 100 µM | TGI [17]: > 100 µM | TGI [18]: > 100 µM | TGI [19]: > 100 µM | TGI [20]: > 100 µM | TGI [45]: > 100 µM | TGI [21]: > 100 µM | TGI [46]: > 100 µM | TGI [47]: > 100 µM | TGI [22]: > 100 µM | TGI [23]: > 100 µM | TGI [48]: > 100 µM | TGI [49]: > 100 µM | TGI [57]: > 100 µM | TGI [58]: > 100 µM | TGI [50]: > 100 µM | TGI [24]: > 100 µM | TGI [51]: > 100 µM | TGI [52]: > 100 µM | TGI [25]: > 100 µM | TGI [26]: > 100 µM | TGI [53]: > 100 µM | TGI [27]: > 100 µM | TGI [54]: > 100 µM | TGI [55]: > 100 µM | TGI [28]: > 100 µM | TGI [56]: > 100 µM

From PubChem BioAssay (NCI)
